From BindingDB's records for doi:10.1021/jm060189a (Abbott Laboratories, 2006) come the findings set out here.

For the test, the target named is Adenosine kinase (Rattus norvegicus, UniProt Q64640). In words: ADK Inhibition Assay. To be noted: pH 7.5; 23 °C. Here is the method:
ADK activity was monitored by a radiochemical assay, which measures the conversion of radioactive Ado ([U-14C] adenosine or [2-3H] adenosine) to AMP in the presence of ATP and MgCl2. The radioactivity incorporated was directly proportional to the conversion rate. The reaction was terminated by aliquoting the reaction mixture onto DE-81 anion exchange filter disks. The filter disks were then dried, washed, and counted. Bound radioactivity was determined by standard scintillation spectrometry at an efficiency of 55%.

One may read the IC50 as the concentration that inhibits the measured activity by half. A high value points to lower potency.

Adenosine kinase, sequence (Q64640 whole entry): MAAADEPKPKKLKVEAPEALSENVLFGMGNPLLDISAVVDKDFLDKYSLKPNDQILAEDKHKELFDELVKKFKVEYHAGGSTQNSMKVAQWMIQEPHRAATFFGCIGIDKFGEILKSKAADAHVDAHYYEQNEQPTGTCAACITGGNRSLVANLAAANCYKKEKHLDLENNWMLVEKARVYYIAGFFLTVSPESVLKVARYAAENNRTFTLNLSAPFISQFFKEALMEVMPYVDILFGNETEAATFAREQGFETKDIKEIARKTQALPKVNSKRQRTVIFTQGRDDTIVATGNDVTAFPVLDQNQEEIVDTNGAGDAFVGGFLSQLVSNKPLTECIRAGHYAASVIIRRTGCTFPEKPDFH

Compound `Cc1nc(N)c(-c2ccccc2)c(C#Cc2ccc(N(C)C)cc2)n1` gave an IC50 of more than 1000 nM.
